Results on 68 sequences are retold here after the supplement of paper PMC11208160.

A short description of the data set: recombinant UMI read abundance after kanamycin selection (control-corrected) (log10(CPM+1)); higher = more efficient recombination; extreme values may be limits of the assay; sequences stand for … in AGTGCAGAGAAAATCGGCCAGTTTTCTCTGCCTGCAGTCCGCATGCCGTGGGACCCCTTGGGTTCTAACCTGTTGCCTAGATTTATGCAGCGGACTGCCTTTCTCCCAAAGTGATAAACCGG…AGGTTGGTTTCACT; site = the 11-nt donor. An outline of the steps: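 For the IS621 bridge recombinase, a pooled Escherichia coli screen tested donor and donor-binding-loop pairs. Cells received the pair library together with a target plasmid encoding a fixed target and T7-inducible recombinase, then went onto IPTG (0.07 mM) plus kanamycin or unselected plates in duplicate. After PCR across the donor–target junction and sequencing, recombinant UMI counts were normalized to CPM, averaged, and scaled by control-derived factors. Each value is given as log10(CPM+1).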
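Also: IS621 bridge recombinase in Escherichia coli cells against a fixed T5 target plasmid.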

As to “TCGCCTTCATGGACCGGTTTTCCCGGTAATCCGTATTTGGT (site TTGCCTTCTAC)”, the “recombinant UMI read abundance (log10)” value came to 0.00786.
As to “TCGCGAACATGGACCGGTTTTCCCGGTAATCCGTATTTGTA (site TCGCGAACTTA)”, the “recombinant UMI read abundance (log10)” value was 1.18.
Consider “TCGCTAGCATGGACCGGTTTTCCCGGTAATCCGTATTTGAA (site TAGCTAGCTTT)”, for which the “recombinant UMI read abundance (log10)” value turned out to be 0.00313.
For “TCGCTAGCATGGACCGGTTTTCCCGGTAATCCGTATTTGAA (site TCGCTAGCTTT)”, the “recombinant UMI read abundance (log10)” value was found to be 0.00622.
On to “TCGCTAGCATGGACCGGTTTTCCCGGTAATCCGTATTTGAA (site TGGCTAGCTTT)”, for which the “recombinant UMI read abundance (log10)” value is 0.
Take “TCGCTAGCATGGACCGGTTTTCCCGGTAATCCGTATTTGAA (site TTGCTAGCTTT)”: the “recombinant UMI read abundance (log10)” value was 0.0117.
Take “TCGCTAGCATGGACCGGTTTTCCCGGTAATCCGTATTTGGC (site TCGCTAGCTGC)”: the “recombinant UMI read abundance (log10)” value worked out at 0.
For “TCGCTGTCATGGACCGGTTTTCCCGGTAATCCGTATTTGGA (site TCGCTGTCTTC)”, the “recombinant UMI read abundance (log10)” value came to 1.34.
As for “TCGGAGACATGGACCGGTTTTCCCGGTAATCCGTATTTGAT (site TCGGAGACTAT)”, the “recombinant UMI read abundance (log10)” value amounted to 1.93.
Regarding “TCGGATACATGGACCGGTTTTCCCGGTAATCCGTATTTGCC (site TCGGATACTGG)”, the “recombinant UMI read abundance (log10)” value was found to be 0.615.
In the case of “TCGGATCCATGGACCGGTTTTCCCGGTAATCCGTATTTGTC (site TCGGATCCTGA)”, the “recombinant UMI read abundance (log10)” value came to 0.795.
The same measure for “TCGGATGCATGGACCGGTTTTCCCGGTAATCCGTATTTGAG (site TCGGATGCTCT)”: 1.56; for “TCGGTATCATGGACCGGTTTTCCCGGTAATCCGTATTTGCA (site ACAGTATCTTG)”: 1.54; for “TCGGTATCATGGACCGGTTTTCCCGGTAATCCGTATTTGCA (site TCGGTATCTTG)”: 2.31.
For the sequence “TCGTAGCCATGGACCGGTTTTCCCGGTAATCCGTATTTGTG (site TCGTAGCCTCA)”, the “recombinant UMI read abundance (log10)” value worked out at 0.0471.
As to “TCGTATGCATGGACCGGTTTTCCCGGTAATCCGTATTTGAC (site TCGTATGCTGT)”, the “recombinant UMI read abundance (log10)” value turned out to be 0.101.
For “TCGTCACCATGGACCGGTTTTCCCGGTAATCCGTATTTGTG (site TCGTCACCTCA)” the value was 0.0129.
In the case of “TCGTGACCATGGACCGGTTTTCCCGGTAATCCGTATTTGCA (site TCGTGACCTTG)”, the “recombinant UMI read abundance (log10)” value was found to be 0.
As to “TCGTTCCCATGGACCGGTTTTCCCGGTAATCCGTATTTGAC (site TCGTTCCCTGT)”, the “recombinant UMI read abundance (log10)” value was found to be 0.
Turning to “TCTAAAGCATGGACCGGTTTTCCCGGTAATCCGTATTTGAT (site ACTAAAGCTAT)”, the “recombinant UMI read abundance (log10)” value amounted to 0.
On to “TCTAAAGCATGGACCGGTTTTCCCGGTAATCCGTATTTGAT (site CCTAAAGCTAT)”, for which the “recombinant UMI read abundance (log10)” value turned out to be 0.
For “TCTAAAGCATGGACCGGTTTTCCCGGTAATCCGTATTTGAT (site GCTAAAGCTAT)” the value was 0; for “TCTAAAGCATGGACCGGTTTTCCCGGTAATCCGTATTTGAT (site TCTAAAGCTAT)”, 0.373; for “TCTAATTCATGGACCGGTTTTCCCGGTAATCCGTATTTGAA (site TCTAATTCTTT)”, 0.
On to “TCTAGACCATGGACCGGTTTTCCCGGTAATCCGTATTTGCC (site TCTAGACCTGG)”, for which the “recombinant UMI read abundance (log10)” value was 0.
Take “TCTATGCCATGGACCGGTTTTCCCGGTAATCCGTATTTGTT (site TCTATGCCTAA)”: the “recombinant UMI read abundance (log10)” value was 0.00238.
Consider “TCTGATACATGGACCGGTTTTCCCGGTAATCCGTATTTGCT (site TCTGATACTAG)”, for which the “recombinant UMI read abundance (log10)” value is 0.
Consider “TCTGCAACATGGACCGGTTTTCCCGGTAATCCGTATTTGAA (site TCTGCAACTTT)”, for which the “recombinant UMI read abundance (log10)” value was found to be 0.00363.
For “TCTGCACCATGGACCGGTTTTCCCGGTAATCCGTATTTGGA (site TCTGCACCTTC)” the value was 0.0216; for “TCTGCAGCATGGACCGGTTTTCCCGGTAATCCGTATTTGAA (site TCTGCAGCTTT)”, 0.00333; for “TCTGCTGCATGGACCGGTTTTCCCGGTAATCCGTATTTGGC (site TCTGCTGCTGC)”, 0.
Turning to “TCTTACCCATGGACCGGTTTTCCCGGTAATCCGTATTTGGA (site TCTTACCCTTC)”, the “recombinant UMI read abundance (log10)” value is 0.0207.
As to “TCTTACTCATGGACCGGTTTTCCCGGTAATCCGTATTTGCA (site TCATACTCTTG)”, the “recombinant UMI read abundance (log10)” value stood at 0.465.
For “TCTTACTCATGGACCGGTTTTCCCGGTAATCCGTATTTGCA (site TCCTACTCTTG)” the value was 1.09.
For the sequence “TCTTACTCATGGACCGGTTTTCCCGGTAATCCGTATTTGCA (site TCGTACTCTTG)”, the “recombinant UMI read abundance (log10)” value was 0.946.
As to “TCTTACTCATGGACCGGTTTTCCCGGTAATCCGTATTTGCA (site TCTTACTCTTG)”, the “recombinant UMI read abundance (log10)” value was 0.535.
For “TCTTATACATGGACCGGTTTTCCCGGTAATCCGTATTTGCT (site TCTTATACTAG)”, the “recombinant UMI read abundance (log10)” value was 0.00302.
“TCTTATCCATGGACCGGTTTTCCCGGTAATCCGTATTTGGA (site TCTTATCCTTC)”: the “recombinant UMI read abundance (log10)” value is 0.0232.
For “TCTTCCCCATGGACCGGTTTTCCCGGTAATCCGTATTTGTA (site TATTCCCCTTA)”, the “recombinant UMI read abundance (log10)” value worked out at 0.0172.
Consider “TCTTCCCCATGGACCGGTTTTCCCGGTAATCCGTATTTGTA (site TCTTCCCCTTA)”, for which the “recombinant UMI read abundance (log10)” value was determined as 0.
Regarding “TCTTCCCCATGGACCGGTTTTCCCGGTAATCCGTATTTGTA (site TGTTCCCCTTA)”, the “recombinant UMI read abundance (log10)” value came out at 0.00596.
For “TCTTCCCCATGGACCGGTTTTCCCGGTAATCCGTATTTGTA (site TTTTCCCCTTA)” the value was 0.00951.
In the case of “TCTTGCCCATGGACCGGTTTTCCCGGTAATCCGTATTTGAT (site ACTTGCCCTAT)”, the “recombinant UMI read abundance (log10)” value was found to be 0.00765.
With “TCTTGCCCATGGACCGGTTTTCCCGGTAATCCGTATTTGAT (site CCTTGCCCTAT)”, the “recombinant UMI read abundance (log10)” value was found to be 0.0026.
Consider “TCTTGCCCATGGACCGGTTTTCCCGGTAATCCGTATTTGAT (site GCTTGCCCTAT)”, for which the “recombinant UMI read abundance (log10)” value came out at 0.00287.
Regarding “TCTTGCCCATGGACCGGTTTTCCCGGTAATCCGTATTTGAT (site TCTTGCCCTAT)”, the “recombinant UMI read abundance (log10)” value stood at 0.0104.
For “TCTTTAGCATGGACCGGTTTTCCCGGTAATCCGTATTTGCA (site TCTTTAGCTTG)” the value was 0.
For “TGAAAGACATGGACCGGTTTTCCCGGTAATCCGTATTTGTA (site TGAAAGACTTA)” the value was 2.37.
As to “TGAACACCATGGACCGGTTTTCCCGGTAATCCGTATTTGCA (site TGAACACCTTG)”, the “recombinant UMI read abundance (log10)” value turned out to be 0.302.
Regarding “TGAACATCATGGACCGGTTTTCCCGGTAATCCGTATTTGGC (site TGAACATCTGC)”, the “recombinant UMI read abundance (log10)” value came to 1.37.
The same measure for “TGAACGACATGGACCGGTTTTCCCGGTAATCCGTATTTGGA (site TGAACGACTTC)”: 0.221; for “TGAAGAGCATGGACCGGTTTTCCCGGTAATCCGTATTTGCC (site TGAAGAGCTGG)”: 1.62; for “TGAAGCACATGGACCGGTTTTCCCGGTAATCCGTATTTGCG (site TGAAGCACTCG)”: 1.18.
In the case of “TGAATCACATGGACCGGTTTTCCCGGTAATCCGTATTTGAA (site CACGCGCCTGA)”, the “recombinant UMI read abundance (log10)” value came out at 0.00781.
Turning to “TGACATTCATGGACCGGTTTTCCCGGTAATCCGTATTTGCC (site TGACATTCTGG)”, the “recombinant UMI read abundance (log10)” value came to 2.22.
For “TGACCCGCATGGACCGGTTTTCCCGGTAATCCGTATTTGAC (site CAGATACCTCC)”, the “recombinant UMI read abundance (log10)” value amounted to 0.00655.
Take “TGACGAACATGGACCGGTTTTCCCGGTAATCCGTATTTGGT (site TGACGAACTAC)”: the “recombinant UMI read abundance (log10)” value was 1.16.
Turning to “TGACGCTCATGGACCGGTTTTCCCGGTAATCCGTATTTGCG (site TGACGCTCTCG)”, the “recombinant UMI read abundance (log10)” value came out at 1.33.
For “TGACTGCCATGGACCGGTTTTCCCGGTAATCCGTATTTGAA (site TGACTGCCTTT)”, the “recombinant UMI read abundance (log10)” value was 0.0135.
As for “TGACTGGCATGGACCGGTTTTCCCGGTAATCCGTATTTGTA (site TGACTGGCTTA)”, the “recombinant UMI read abundance (log10)” value worked out at 1.34.
Take “TGACTGTCATGGACCGGTTTTCCCGGTAATCCGTATTTGAT (site TGACTGTCTAT)”: the “recombinant UMI read abundance (log10)” value was determined as 0.245.
With “TGACTTTCATGGACCGGTTTTCCCGGTAATCCGTATTTGAG (site TGACTTTCTCT)”, the “recombinant UMI read abundance (log10)” value amounted to 0.
In the case of “TGAGCGTCATGGACCGGTTTTCCCGGTAATCCGTATTTGAC (site TGAGCGTCTGT)”, the “recombinant UMI read abundance (log10)” value came to 1.7.
Regarding “TGAGCTACATGGACCGGTTTTCCCGGTAATCCGTATTTGTC (site GCGAACTCTCC)”, the “recombinant UMI read abundance (log10)” value was 0.
As to “TGAGGACCATGGACCGGTTTTCCCGGTAATCCGTATTTGGG (site AGAGGACCTCC)”, the “recombinant UMI read abundance (log10)” value came out at 0.0068.
For “TGAGGACCATGGACCGGTTTTCCCGGTAATCCGTATTTGGG (site CGAGGACCTCC)” the value was 0.00688; for “TGAGGACCATGGACCGGTTTTCCCGGTAATCCGTATTTGGG (site GGAGGACCTCC)”, 0.0165.
For the sequence “TGAGGACCATGGACCGGTTTTCCCGGTAATCCGTATTTGGG (site TGAGGACCTCC)”, the “recombinant UMI read abundance (log10)” value is 0.0291.
